In ChEMBL document CHEMBL4610065, “Isolation and Structural Characterization of Specific Bacterial β-Glucuronidase Inhibitors from Noni (Morinda citrifolia) Fruits” (J Nat Prod, 2020):
The source made the active and inactive calls. No cut-off for these calls is given here.

Tests used:
[1] = molecular target: T1, Pancreatic triacylglycerol lipase (Sus scrofa, UniProt P00591); assay: Inhibition of porcine pancreatic lipase at 5 ug/ml using 4-MU oleate as substrate incubated for 30 min by fluorescence method relative to control; conditions: pig, 0.5 h
T1 sequence (P00591 whole entry): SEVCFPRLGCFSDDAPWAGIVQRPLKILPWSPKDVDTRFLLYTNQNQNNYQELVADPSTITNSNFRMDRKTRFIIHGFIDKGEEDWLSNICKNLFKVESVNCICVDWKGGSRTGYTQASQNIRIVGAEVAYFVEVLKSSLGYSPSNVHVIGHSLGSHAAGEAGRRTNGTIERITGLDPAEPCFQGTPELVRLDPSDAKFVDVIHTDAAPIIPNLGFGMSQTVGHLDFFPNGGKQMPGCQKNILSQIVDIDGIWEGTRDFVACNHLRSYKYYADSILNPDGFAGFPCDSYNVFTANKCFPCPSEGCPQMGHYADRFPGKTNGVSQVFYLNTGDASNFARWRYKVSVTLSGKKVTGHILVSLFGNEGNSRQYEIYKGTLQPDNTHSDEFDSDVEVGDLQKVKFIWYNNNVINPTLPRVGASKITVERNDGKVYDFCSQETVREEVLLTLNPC

Rattus norvegicus [2] = species on record: Rattus norvegicus; assay: Inhibition of rat intestinal alpha-glucosidase at 0.5 mg/ml using pNPG as substrate preincubated for 3 mins followed by substrate addition and measured after 30 mins
[3] = molecular target: T1, Pancreatic triacylglycerol lipase; assay: Inhibition of porcine pancreatic lipase up to 1 mg/ml using 4-MU oleate as substrate incubated for 30 min by fluorescence method relative to control; conditions: pig, 0.5 h
[4] = molecular target: Beta-glucuronidase (Escherichia coli (strain K12)) (UniProt P05804); assay: Potency index, ratio of DSA IC50 to compound IC50 for inhibition of Escherichia coli beta-glucuronidase using 4-methylumbelliferyl-beta-D-glucuronide hydrate as substrate preincubated for 5 mins followed by substrate addition and measured after 30 mins by fluorescence method
[5] = molecular target: T1, Pancreatic triacylglycerol lipase; assay: Inhibition of porcine pancreatic lipase at 0.1 mg/ml using 4-MU oleate as substrate incubated for 30 min by fluorescence method relative to control; conditions: pig, 0.5 h
Rattus norvegicus [6] = species on record: Rattus norvegicus; assay: Inhibition of rat intestinal alpha-glucosidase at 1 mg/ml using pNPG as substrate preincubated for 3 mins followed by substrate addition and measured after 30 mins relative to control
Beta-glucuronidase = Beta-glucuronidase (Escherichia coli (strain K12), UniProt P05804); assay: Inhibition of Escherichia coli beta-glucuronidase using 4-methylumbelliferyl-beta-D-glucuronide hydrate as substrate preincubated for 5 mins followed by substrate addition and measured after 30 mins by fluorescence method
Pancreatic alpha-amylase [7] = molecular target: T2, Pancreatic alpha-amylase (Sus scrofa, UniProt P00690); assay: Inhibition of porcine pancreatic alpha-amylase at 0.1 to 0.5 mg/ml using potato starch as substrate preincubated for 5 mins followed by substrate addition and measured after 3 mins by DNS method; conditions: pig, 0.05 h
T2 sequence (P00690 whole entry): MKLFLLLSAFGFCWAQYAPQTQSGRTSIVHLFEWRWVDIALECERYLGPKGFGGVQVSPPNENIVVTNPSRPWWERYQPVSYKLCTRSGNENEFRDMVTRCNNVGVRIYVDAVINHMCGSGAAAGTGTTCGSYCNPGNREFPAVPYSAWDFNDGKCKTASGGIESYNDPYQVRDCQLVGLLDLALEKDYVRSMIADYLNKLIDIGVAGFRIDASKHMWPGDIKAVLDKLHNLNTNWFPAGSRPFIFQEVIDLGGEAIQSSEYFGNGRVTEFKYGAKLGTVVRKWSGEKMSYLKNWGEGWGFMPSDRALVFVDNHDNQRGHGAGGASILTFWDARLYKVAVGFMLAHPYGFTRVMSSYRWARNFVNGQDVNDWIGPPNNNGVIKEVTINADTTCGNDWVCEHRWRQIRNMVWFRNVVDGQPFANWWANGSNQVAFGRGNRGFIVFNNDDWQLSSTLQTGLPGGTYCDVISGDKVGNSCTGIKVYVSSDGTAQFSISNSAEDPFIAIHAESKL

Pancreatic alpha-amylase [8] = molecular target: T2, Pancreatic alpha-amylase; assay: Inhibition of porcine pancreatic alpha-amylase at 1 mg/ml using potato starch as substrate preincubated for 5 mins followed by substrate addition and measured after 3 mins by DNS method relative to control; conditions: pig, 0.05 h
Rattus norvegicus [9] = species on record: Rattus norvegicus; assay: Inhibition of rat intestinal alpha-glucosidase at 0.02 mM using pNPG as substrate preincubated for 3 mins followed by substrate addition and measured after 30 mins relative to control
Pancreatic alpha-amylase [10] = molecular target: T2, Pancreatic alpha-amylase; assay: Inhibition of porcine pancreatic alpha-amylase at 10 ug/ml using potato starch as substrate preincubated for 5 mins followed by substrate addition and measured after 3 mins by DNS method relative to control; conditions: pig, 0.05 h

Sequence of Beta-glucuronidase (P05804 whole entry): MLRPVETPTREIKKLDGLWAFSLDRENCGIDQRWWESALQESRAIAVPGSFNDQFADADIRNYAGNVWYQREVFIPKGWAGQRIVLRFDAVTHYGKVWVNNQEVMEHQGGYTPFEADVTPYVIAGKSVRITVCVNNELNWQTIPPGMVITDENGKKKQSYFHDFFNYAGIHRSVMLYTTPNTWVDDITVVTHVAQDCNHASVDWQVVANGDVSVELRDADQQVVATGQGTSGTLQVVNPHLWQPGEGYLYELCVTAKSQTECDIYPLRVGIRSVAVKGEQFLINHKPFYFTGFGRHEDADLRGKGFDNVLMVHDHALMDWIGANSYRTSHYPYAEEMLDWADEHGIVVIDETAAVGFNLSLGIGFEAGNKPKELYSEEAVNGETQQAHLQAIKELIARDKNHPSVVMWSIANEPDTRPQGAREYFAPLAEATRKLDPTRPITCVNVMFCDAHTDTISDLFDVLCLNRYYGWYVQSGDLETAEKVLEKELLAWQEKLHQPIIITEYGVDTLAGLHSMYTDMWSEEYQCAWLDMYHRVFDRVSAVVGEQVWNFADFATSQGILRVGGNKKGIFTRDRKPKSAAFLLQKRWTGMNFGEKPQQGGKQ
Sequence of Beta-glucuronidase (Escherichia coli (strain K12)) (P05804 whole entry, looked up): as the sequence (P05804 whole entry) above

Row | Compound | inhibition (Rattus norvegicus [2]) | inhibition (INH) [3] | Ratio IC50 [4] | inhibition (INH) [5] | inhibition (Rattus norvegicus [6]) | IC50 (Beta-glucuronidase) | inhibition (INH) (Pancreatic alpha-amylase [7]) | inhibition (INH) (Pancreatic alpha-amylase [8]) | inhibition (INH) [1] | inhibition (Rattus norvegicus [9]) | inhibition (INH) (Pancreatic alpha-amylase [10])
1 | CCCCCCCCCCC[C@@H](C[C@@H]1OC(=O)[C@H]1CCCCCC)OC(=O)[C@H](CC(C)C)NC=O [ORLISTAT] | – | – | – | – | – | – | – | – | 96% | – | –
2 | O=C(O)[C@@H](O)[C@H]1OC(=O)[C@H](O)[C@H]1O | – | – | – | – | – | 24.3 µM | – | – | – | – | –
3 | C[C@H]1O[C@H](O[C@H]2[C@H](O)[C@@H](O)[C@@H](O[C@H]3[C@H](O)[C@@H](O)C(O)O[C@@H]3CO)O[C@@H]2CO)[C@H](O)[C@@H](O)[C@@H]1N[C@H]1C=C(CO)[C@@H](O)[C@H](O)[C@H]1O (stereo not given in full) [ACARBOSE] | – | – | – | – | – | – | – | – | – | 80% | 94%

Continued, in another order:

Row | inhibition (Rattus norvegicus [2]) | inhibition (INH) [3] | Ratio IC50 [4] | inhibition (INH) [5] | inhibition (Rattus norvegicus [6]) | IC50 (Beta-glucuronidase) | inhibition (INH) (Pancreatic alpha-amylase [7]) | inhibition (INH) (Pancreatic alpha-amylase [8]) | Compound | inhibition (INH) [1] | inhibition (Rattus norvegicus [9]) | inhibition (INH) (Pancreatic alpha-amylase [10])
4 | inactive | 85 to 93% | 3.5 to 39.5 | < 56% | 12% | 6.91 µM | Not Active | – | OC/C=C/c1ccc2c(c1)O[C@H](c1ccc3c(c1)O[C@@H](c1ccc(O)c(O)c1)[C@H](CO)O3)[C@@H](CO)O2 | – | – | –
5 | inactive | 85 to 93% | 3.5 to 39.5 | < 56% | inactive | 4.02 µM | Not Active | 21% | OC/C=C/c1ccc2c(c1)O[C@@H](CO)[C@H](c1ccc3c(c1)O[C@H](CO)[C@@H](c1ccc(O)c(O)c1)O3)O2 | – | – | –
6 | inactive | 85 to 93% | 3.5 to 39.5 | < 56% | inactive | 0.95 µM | Not Active | 21% | OC[C@@H]1Oc2cc([C@@H]3OC[C@@H]4[C@H]3CO[C@H]4c3ccc4c(c3)O[C@@H](CO)[C@H](c3ccc(O)c(O)c3)O4)ccc2O[C@H]1c1ccc(O)c(O)c1 | – | – | –
7 | inactive | 85 to 93% | 3.5 to 39.5 | < 56% | inactive | 0.62 µM | Not Active | 21% | OC[C@H]1Oc2ccc([C@@H]3OC[C@@H]4[C@H]3CO[C@H]4c3ccc4c(c3)O[C@H](c3ccc(O)c(O)c3)[C@@H](CO)O4)cc2O[C@@H]1c1ccc(O)c(O)c1 | – | – | –
